According to patent EP0917880A1, “Inclusion complex of diiodomethyl-p-tolylsulfone with cyclodextrin derivatives” (Wacker-Chemie GmbH, priority 1997, dated 1999):

Assays:
Aspergillus niger = experiment: Determination of Minimum Inhibitory Concentrations (MIC), Sabouraud media; assay type: cell-based; details: Amical in free form
Description: (§1) The efficacy of Amical in comparison to Amical/methyl-β-cyclodextrin inclusion compound against different microorganism was tested by measuring the Minimum Inhibitory Concentrations (MIC in µg/ml). For the cell cultures Sabouraud media were used. […]

[1] = system: Cladosporium cladosporioides; experiment: as above; assay type: cell-based; details: Amical in free form
Description: as §1

Penicillium citrinum = experiment: as above; assay type: cell-based; details: Amical in free form
Description: as §1

Rhizopus oryzae = experiment: as above; assay type: cell-based; details: Rhizopus arrhizus, Amical in free form
Description: as §1

[2] = water; cited from earlier work

MIC (Aspergillus niger): 1.2 µg/mL
MIC [1]: 1.3 µg/mL
MIC (Penicillium citrinum): 3.8 µg/mL
MIC (Rhizopus oryzae): 7.5 to 14 µg/mL
Compound: Cc1ccc(S(=O)(=O)C(I)I)cc1 [Amical, diiodomethyl-p-tolylsulfone]
watersolubility [2]: less than 5 ppm
